According to PubChem BioAssay (NCI):
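Briefly, cells in 96-well plates were exposed to five compound concentrations for 48 h, and endpoints were estimated by linear interpolation. TGI: concentration producing complete growth inhibition.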

How the values were obtained:
Test in all cases: NCI tumour cell line growth inhibition, 48 h
HCT-116 colon = tested on: HCT-116 colon
OVCAR-3 ovarian = tested on: OVCAR-3 ovarian
COLO 205 colon = tested on: COLO 205 colon
MDA-MB-231 breast = tested on: MDA-MB-231 breast
RPMI-8226 leukemia = tested on: RPMI-8226 leukemia
NCI-H522 lung = tested on: NCI-H522 lung
OVCAR-8 ovarian = tested on: OVCAR-8 ovarian
HL-60(TB) leukemia = tested on: HL-60(TB) leukemia
M14 melanoma = tested on: M14 melanoma
SN12C renal = tested on: SN12C renal
HS 578T breast = tested on: HS 578T breast
UACC-62 melanoma = tested on: UACC-62 melanoma
OVCAR-5 ovarian = tested on: OVCAR-5 ovarian
CCRF-CEM leukemia = tested on: CCRF-CEM leukemia
TK-10 renal = tested on: TK-10 renal
A549 NSCLC = tested on: A549 NSCLC
A498 renal = tested on: A498 renal
HCT-15 colon = tested on: HCT-15 colon
NCI/ADR-RES ovarian = tested on: NCI/ADR-RES ovarian
MDA-MB-435 = tested on: MDA-MB-435
EKVX NSCLC = tested on: EKVX NSCLC
HT29 colon = tested on: HT29 colon
U251 CNS = tested on: U251 CNS
LOX IMVI melanoma = tested on: LOX IMVI melanoma
DU-145 prostate = tested on: DU-145 prostate
IGROV1 ovarian = tested on: IGROV1 ovarian
SK-MEL-2 melanoma = tested on: SK-MEL-2 melanoma
SF-295 CNS = tested on: SF-295 CNS
MALME-3M melanoma = tested on: MALME-3M melanoma
MOLT-4 leukemia = tested on: MOLT-4 leukemia
SK-MEL-28 melanoma = tested on: SK-MEL-28 melanoma
NCI-H23 lung = tested on: NCI-H23 lung
CAKI-1 renal = tested on: CAKI-1 renal
BT-549 breast = tested on: BT-549 breast
NCI-H460 lung = tested on: NCI-H460 lung
SK-OV-3 ovarian = tested on: SK-OV-3 ovarian
UO-31 renal = tested on: UO-31 renal
MDA-N = tested on: MDA-N
HCC-2998 colon = tested on: HCC-2998 colon
HOP-92 NSCLC = tested on: HOP-92 NSCLC
PC-3 prostate = tested on: PC-3 prostate
SF-268 CNS = tested on: SF-268 CNS
786-0 renal = tested on: 786-0 renal
SW-620 colon = tested on: SW-620 colon
MCF7 breast = tested on: MCF7 breast
RXF 393 renal = tested on: RXF 393 renal
SNB-19 CNS = tested on: SNB-19 CNS
T-47D breast = tested on: T-47D breast
KM12 colon = tested on: KM12 colon
SNB-75 CNS = tested on: SNB-75 CNS
NCI-H226 lung = tested on: NCI-H226 lung
HOP-62 NSCLC = tested on: HOP-62 NSCLC
SF-539 CNS = tested on: SF-539 CNS
OVCAR-4 ovarian = tested on: OVCAR-4 ovarian
UACC-257 melanoma = tested on: UACC-257 melanoma
K-562 leukemia = tested on: K-562 leukemia
ACHN renal = tested on: ACHN renal
SK-MEL-5 melanoma = tested on: SK-MEL-5 melanoma

Measured: TGI

Oc1cccc2cc(Cl)cnc12
> 77.5 µM: A498 renal
6.27 µM: HL-60(TB) leukemia
38.3 µM: K-562 leukemia
27.4 µM: MOLT-4 leukemia
> 83.4 µM: IGROV1 ovarian
97.5 µM: NCI-H226 lung
> 88.4 µM: HCC-2998 colon
> 31.1 µM: OVCAR-3 ovarian
81.7 µM: UACC-257 melanoma
37.8 µM: HCT-116 colon
> 83.5 µM: HS 578T breast
> 64.1 µM: LOX IMVI melanoma
30.3 µM: NCI/ADR-RES ovarian
22 µM: NCI-H522 lung
> 79.6 µM: RXF 393 renal
> 44.7 µM: UACC-62 melanoma
99 µM: SF-539 CNS
> 90.6 µM: OVCAR-4 ovarian
> 69.2 µM: HT29 colon
> 68.5 µM: T-47D breast
99.1 µM: SK-MEL-5 melanoma
61.6 µM: RPMI-8226 leukemia
98.9 µM: EKVX NSCLC
15.5 µM: CCRF-CEM leukemia
> 100 µM: all other assays above

CN(C)c1ccc(/C=C2\N=C(N/N=C/c3ccc(N(C)C)cc3)NC2=O)cc1
96 µM: DU-145 prostate
98.4 µM: HOP-92 NSCLC
72.7 µM: OVCAR-8 ovarian
53.8 µM: RXF 393 renal
not listed: LOX IMVI melanoma | SF-539 CNS | K-562 leukemia
> 100 µM: all other assays above
